According to paper PMC9683698 (Science Advances, 2022):

Experiments:
[1] = molecular target: T1, cPLA2 (cPLA2 group IVA, PLA2G4A) (Homo sapiens, UniProt P47712); test: biochemical
T1 construct: recombinant, expressed and purified from insect cells
T1 sequence (P47712 1-749): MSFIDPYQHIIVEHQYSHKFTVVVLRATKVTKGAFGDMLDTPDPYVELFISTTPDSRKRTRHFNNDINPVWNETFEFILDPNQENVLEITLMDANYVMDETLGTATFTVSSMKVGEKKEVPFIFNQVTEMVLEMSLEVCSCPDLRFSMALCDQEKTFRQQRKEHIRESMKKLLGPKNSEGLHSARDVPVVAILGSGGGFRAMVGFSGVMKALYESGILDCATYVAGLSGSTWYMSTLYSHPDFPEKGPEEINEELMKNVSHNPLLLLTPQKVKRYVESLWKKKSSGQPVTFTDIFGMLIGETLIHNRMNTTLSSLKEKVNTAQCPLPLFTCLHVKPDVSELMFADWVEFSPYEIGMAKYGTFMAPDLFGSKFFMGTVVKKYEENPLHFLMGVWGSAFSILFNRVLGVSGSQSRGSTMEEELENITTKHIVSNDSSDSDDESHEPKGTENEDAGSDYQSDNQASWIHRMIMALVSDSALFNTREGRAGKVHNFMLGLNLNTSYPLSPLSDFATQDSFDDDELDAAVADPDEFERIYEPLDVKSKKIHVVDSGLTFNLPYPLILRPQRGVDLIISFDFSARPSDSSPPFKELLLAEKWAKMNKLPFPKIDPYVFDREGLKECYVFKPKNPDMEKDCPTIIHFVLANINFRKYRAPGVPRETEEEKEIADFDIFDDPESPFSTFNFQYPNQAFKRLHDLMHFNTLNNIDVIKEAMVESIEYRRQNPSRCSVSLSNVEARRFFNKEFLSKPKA

[2] = molecular target: SARS-CoV S ectodomain (SARS-CoV) (UniProt P59594); test: […], SEC buffer 20 mM tris pH 7.5, 100 mM NaCl; […]

Compound | IC50 [1] [µM] | stoichiometry N [2]
CCCCC/C=C\C/C=C\CCCCCCCC(=O)O [linoleic acid] | ~100 | –
SARS-CoV S ectodomain (from UniProt P59594 14-1193) (domain or fragment) | – | 3
